The results in this text go back to paper PMC8826081, “Three-Carbon Linked Dihydroartemisinin-Isatin Hybrids: Design, Synthesis and Their Antiproliferative Anticancer Activity” (Frontiers in Pharmacology, 2022).

The structures appear in SMILES notation.

In data set [1] the test system is A549/DDP (cisplatin-resistant A549 cells). The experiment in a line: MTT antiproliferative activity against cisplatin-resistant A549. The format is cell-based. The conditions noted are these: for IC50: MTT assay, cisplatin-resistant A549 cells. The source says: (§1) 3-(4,5-dimethylthiazol-2-yl)-2,5-diphenyltetrazolium bromide (MTT) assay was used to determined the antiproliferative activity of dihydroartemisinin-isatin hybrids 5a-e and 6a-j with three-carbon linker against A549, multidrug-resistant A549/DOX and A549/DDP lung cancer cell lines as well as cytotoxicity towards normal lung epithelial cell line (BEAS-2B). The inhibitory effects were expressed in terms of half maximal inhibitory concentration (IC50) values.
(§2) A549, A549/DOX, and A549/DDP lung cancer cells (2×10^3) were plated in each well of a 96-well plate and were allowed to adhere and spread for 24 h. The […] were added to a final concentration of 100 µM, and the cells were cultured for 24 h at 37 °C. 3-(4,5-dimethyl-2-thiazolyl)-2,5-diphenyltetrazolium bromide (MTT) solution (10 µL) was added to each well, and the cultures were incubated for an additional 4 h. A further 100 µL of […] was added and incubation continued overnight. The absorbance at 540 nm was determined in each well with a 96-well plate reader. The growth of the treated cells was compared with that of untreated cells.
On the technique in general: Tetrazolium dyes change colour on reduction, which living cells bring about.

In data set [2] the test system is A549/DOX (doxorubicin-resistant A549 cells). As to the kind of experiment: MTT antiproliferative activity against doxorubicin-resistant A549. Type of data set: cell-based. The conditions noted are these: for IC50: MTT assay, doxorubicin-resistant A549 cells.
Excerpt: as §1, §2

For a further data set, the system named is A549 lung cancer cells. As to the kind of experiment: MTT antiproliferative activity against A549. The conditions noted are these: MTT assay, drug-sensitive A549. Type of data set: cell-based.
Excerpt: as §1, §2

Data set [3] has as its system BEAS-2B normal lung epithelial cell line. The experiment in a line: MTT cytotoxicity towards normal lung epithelial cells. The conditions noted are these: IC50(BEAS-2B)/IC50(A549). Here is the method: as §1
(§3) The compounds were dissolved in DMSO with concentrations from 1024 to 1 μg/mL. The NIH/3T3 cells were maintained in culture medium at 37 °C under 5% CO2 atmosphere. Cells were seeded in 96-well plates (1×10^4 cell per well) and allowed to recover for 24 h. After 72 h of exposure, cells were harvested and cell viability was assessed by MTT assay. The CC50 values were calculated by Bliss analysis.

A short description of another data set: in vitro. The conditions noted are these: human. As for the experimental part:
as §1, §3

The subject of data set [4] is A549, A549/DOX and A549/DDP lung cancer cell lines. As to the kind of experiment: MTT antiproliferative activity, summarised over the three lung cancer cell lines. The conditions noted are these: MTT assay, span of values over the three lung cancer cell lines; read-out: IC50 (range over A549, A549/DOX and A549/DDP). Type of data set: cell-based.
Excerpt: as §1, §2

Regarding `Cc1ccc2c(c1)C(=NNC(N)=S)C(=O)N2CCCOC1O[C@@H]2O[C@@]3(C)CC[C@H]4[C@H](C)CC[C@@H]([C@H]1C)[C@@]24OO3` (stereo partly drawn) [6h, 2-(5-methyl-2-oxo-1-(3-(((3R,5aS,6R,8aS,9R,12R,12aR)-3,6,9-trimethyldecahydro-12H-3,12-epoxy[1,2]dioxepino[4,3-i]isochromen-10-yl)oxy)propyl)indolin-3-ylidene)hydrazine-1-carbothioamide], the IC50 in data set [1] (Homo sapiens) was 94.2 µM; in data set [2] (Homo sapiens), 87.3 µM; in the data set with A549 lung cancer cells (Homo sapiens) it was 99.6 µM; in “in vitro”, greater than 100 µM. The “RI2 (Resistance index: IC50(A549/DDP)/IC50(A549))” value in data set [1] is 0.95. In addition, the “RI1 (Resistance index: IC50(A549/DOX)/IC50(A549))” value in data set [2] came out at 0.88. Further, the “SI (Selectivity index: IC50(BEAS-2B)/IC50(A549))” value in data set [3] is on record as greater than 1.0.
On to `COc1ccc2c(c1)C(=NNC(N)=S)C(=O)N2CCCOC1O[C@@H]2O[C@@]3(C)CC[C@H]4[C@H](C)CC[C@@H]([C@H]1C)[C@@]24OO3` (stereo partly drawn) [6j, 2-(5-methoxy-2-oxo-1-(3-(((3R,5aS,6R,8aS,9R,12R,12aR)-3,6,9-trimethyldecahydro-12H-3,12-epoxy[1,2]dioxepino[4,3-i]isochromen-10-yl)oxy)propyl)indolin-3-ylidene)hydrazine-1-carbothioamide], for which the IC50 in data set [1] (Homo sapiens) is 40.7 µM; in data set [2] (Homo sapiens) it was 78.5 µM; in the data set on A549 lung cancer cells (Homo sapiens), 52.6 µM; in the data set “in vitro” it was greater than 100 µM. Further, the “RI2 (Resistance index: IC50(A549/DDP)/IC50(A549))” value in data set [1] is 0.77. The “SI (Selectivity index: IC50(BEAS-2B)/IC50(A549))” value in data set [3] is greater than 1.9.
Take `C[C@@H]1CC[C@H]2[C@@H](C)C(OCCCN3C(=O)C(=NNC(N)=O)c4ccccc43)O[C@@H]3O[C@@]4(C)CC[C@@H]1[C@]32OO4` (stereo partly drawn) [6b, 2-(2-oxo-1-(3-(((3R,5aS,6R,8aS,9R,12R,12aR)-3,6,9-trimethyldecahydro-12H-3,12-epoxy[1,2]dioxepino[4,3-i]isochromen-10-yl)oxy)propyl)indolin-3-ylidene)hydrazine-1-carboxamide]: the IC50 (in data set [1] (Homo sapiens); in data set [2] (Homo sapiens); with A549 lung cancer cells (Homo sapiens); in the data set “in vitro”) was greater than 100 µM throughout.
With `C[C@@H]1CC[C@H]2[C@@H](C)C(OCCCN3C(=O)C(=NNC(N)=O)c4cc(F)ccc43)O[C@@H]3O[C@@]4(C)CC[C@@H]1[C@]32OO4` (stereo partly drawn) [6d, 2-(5-fluoro-2-oxo-1-(3-(((3R,5aS,6R,8aS,9R,12R,12aR)-3,6,9-trimethyldecahydro-12H-3,12-epoxy[1,2]dioxepino[4,3-i]isochromen-10-yl)oxy)propyl)indolin-3-ylidene)hydrazine-1-carboxamide], the IC50 (in data set [1] (Homo sapiens); in data set [2] (Homo sapiens); in the data set with A549 lung cancer cells (Homo sapiens); in “in vitro”) was greater than 100 µM throughout.
Regarding `COc1ccc2c(c1)C(=NO)C(=O)N2CCCOC1O[C@@H]2O[C@@]3(C)CC[C@H]4[C@H](C)CC[C@@H]([C@H]1C)[C@@]24OO3` (stereo partly drawn) [6i, 3-(hydroxyimino)-5-methoxy-1-(3-(((3R,5aS,6R,8aS,9R,12R,12aR)-3,6,9-trimethyldecahydro-12H-3,12-epoxy[1,2]dioxepino[4,3-i]isochromen-10-yl)oxy)propyl)indolin-2-one], the IC50 in data set [1] (Homo sapiens) is 60.2 µM; in data set [2] (Homo sapiens), 73.5 µM; in the data set with A549 lung cancer cells (Homo sapiens), 51.6 µM; in “in vitro”, greater than 100 µM. The “RI2 (Resistance index: IC50(A549/DDP)/IC50(A549))” value in data set [1] came to 1.17. In addition, the “SI (Selectivity index: IC50(BEAS-2B)/IC50(A549))” value in data set [3] was greater than 1.9.
`C[C@@H]1CC[C@H]2[C@@H](C)C(OCCCN3C(=O)C(=O)c4ccccc43)O[C@@H]3O[C@@]4(C)CC[C@@H]1[C@]32OO4` (stereo partly drawn) [5a, 1-(3-(((3R,5aS,6R,8aS,9R,12R,12aR)-3,6,9-trimethyldecahydro-12H-3,12-epoxy[1,2]dioxepino[4,3-i]isochromen-10-yl)oxy)propyl)indoline-2,3-dione]: the IC50 (in data set [1] (Homo sapiens); in data set [2] (Homo sapiens); with A549 lung cancer cells (Homo sapiens); in the data set “in vitro”) was greater than 100 µM throughout.
Turning to `COc1ccc2c(c1)C(=O)C(=O)N2CCCOC1O[C@@H]2O[C@@]3(C)CC[C@H]4[C@H](C)CC[C@@H]([C@H]1C)[C@@]24OO3` (stereo partly drawn) [5e, 5-methoxy-1-(3-(((3R,5aS,6R,8aS,9R,12R,12aR)-3,6,9-trimethyldecahydro-12H-3,12-epoxy[1,2]dioxepino[4,3-i]isochromen-10-yl)oxy)propyl)indoline-2,3-dione], the IC50 (in data set [1] (Homo sapiens); in data set [2] (Homo sapiens); in the data set with A549 lung cancer cells (Homo sapiens); in “in vitro”) was greater than 100 µM each time.
Turning to `Cc1ccc2c(c1)C(=O)C(=O)N2CCCOC1O[C@@H]2O[C@@]3(C)CC[C@H]4[C@H](C)CC[C@@H]([C@H]1C)[C@@]24OO3` (stereo partly drawn) [5d, 5-methyl-1-(3-(((3R,5aS,6R,8aS,9R,12R,12aR)-3,6,9-trimethyldecahydro-12H-3,12-epoxy[1,2]dioxepino[4,3-i]isochromen-10-yl)oxy)propyl)indoline-2,3-dione], the IC50 (in data set [1] (Homo sapiens); in data set [2] (Homo sapiens); in the data set with A549 lung cancer cells (Homo sapiens); in “in vitro”) was greater than 100 µM each time.
For `Cc1ccc2c(c1)C(=NO)C(=O)N2CCCOC1O[C@@H]2O[C@@]3(C)CC[C@H]4[C@H](C)CC[C@@H]([C@H]1C)[C@@]24OO3` (stereo partly drawn) [6g, 3-(hydroxyimino)-5-methyl-1-(3-(((3R,5aS,6R,8aS,9R,12R,12aR)-3,6,9-trimethyldecahydro-12H-3,12-epoxy[1,2]dioxepino[4,3-i]isochromen-10-yl)oxy)propyl)indolin-2-one], the IC50 in data set [1] (Homo sapiens) was 49.7 µM; in data set [2] (Homo sapiens) it was 29.9 µM; in the data set on A549 lung cancer cells (Homo sapiens), 55.5 µM; in “in vitro”, greater than 100 µM. In addition, the “RI2 (Resistance index: IC50(A549/DDP)/IC50(A549))” value in data set [1] worked out at 0.89. Further, the “RI1 (Resistance index: IC50(A549/DOX)/IC50(A549))” value in data set [2] is on record as 0.54. In addition, the “SI (Selectivity index: IC50(BEAS-2B)/IC50(A549))” value in data set [3] is listed as greater than 1.8.
For `C[C@@H]1CC[C@H]2[C@@H](C)C(=O)O[C@@H]3O[C@@]4(C)CC[C@@H]1[C@]32OO4` [Artemisinin], the IC50 (in data set [1] (Homo sapiens); in data set [2] (Homo sapiens); with A549 lung cancer cells (Homo sapiens); in data set [4]; in the data set “in vitro” (BEAS-2B normal lung epithelial cells)) was greater than 100 µM each time.
In the case of `C[C@@H]1CC[C@H]2[C@@H](C)C(OCCCN3C(=O)C(=O)c4cc(F)ccc43)O[C@@H]3O[C@@]4(C)CC[C@@H]1[C@]32OO4` (stereo partly drawn) [5b, 5-fluoro-1-(3-(((3R,5aS,6R,8aS,9R,12R,12aR)-3,6,9-trimethyldecahydro-12H-3,12-epoxy[1,2]dioxepino[4,3-i]isochromen-10-yl)oxy)propyl)indoline-2,3-dione], the IC50 (in data set [1] (Homo sapiens); in data set [2] (Homo sapiens); with A549 lung cancer cells (Homo sapiens); in “in vitro”) was greater than 100 µM in each case.
As for `N.N.[Cl][Pt][Cl]` [cisplatin, reference compound], the IC50 was 66.9 µM in data set [1], 19.7 µM in data set [2], 9.38 µM in the data set with A549 lung cancer cells and 9.38 to 66.9 µM in data set [4].
Turning to `COc1cccc2c1C(=O)c1c(O)c3c(c(O)c1C2=O)C[C@@](O)(C(=O)CO)C[C@@H]3O[C@H]1C[C@H](N)[C@H](O)[C@H](C)O1` [doxorubicin, reference compound], the IC50 is 15.1 µM in data set [1] (Homo sapiens); 54.3 µM in data set [2] (Homo sapiens); 4.06 µM in the data set with A549 lung cancer cells (Homo sapiens); 4.06 to 54.3 µM in data set [4]; 93.8 µM in “in vitro”.
